Test results as given in ChEMBL document CHEMBL1932919, “Dirlotapide as a model substrate to refine structure-based drug design strategies on CYP3A4-catalyzed metabolism” (Bioorg Med Chem Lett, 2012).

System: Liver microsomes
Experiment: Drug metabolism in human liver microsomes at 20 mM
Format: ADME, Microsome
Conditions: 20000 µM; call rule not given here

- Drug metabolism: Active
SMILES: CN(Cc1ccccc1)C(=O)[C@@H](NC(=O)c1cc2cc(NC(=O)c3ccccc3-c3ccc(C(F)(F)F)cc3)ccc2n1C)c1ccccc1 [DIRLOTAPIDE]
